For one substance, IC50 results are on record in publication PMC5869686 (Journal of the American Chemical Society, 2018).

This assay deals with succinate dehydrogenase (mitochondrial Sdh, complex II) (Bos taurus, UniProt P35720+Q3T189+Q95123). Description: colorimetric mitochondrial complex II activity assay. Format: biochemical.
succinate dehydrogenase (mitochondrial Sdh, complex II), sequence (P35720 30-169): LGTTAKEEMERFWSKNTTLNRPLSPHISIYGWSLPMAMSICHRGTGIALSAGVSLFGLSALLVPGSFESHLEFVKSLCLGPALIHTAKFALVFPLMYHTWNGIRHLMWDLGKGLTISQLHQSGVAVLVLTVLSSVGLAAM
succinate dehydrogenase (mitochondrial Sdh, complex II), sequence (Q3T189 29-280): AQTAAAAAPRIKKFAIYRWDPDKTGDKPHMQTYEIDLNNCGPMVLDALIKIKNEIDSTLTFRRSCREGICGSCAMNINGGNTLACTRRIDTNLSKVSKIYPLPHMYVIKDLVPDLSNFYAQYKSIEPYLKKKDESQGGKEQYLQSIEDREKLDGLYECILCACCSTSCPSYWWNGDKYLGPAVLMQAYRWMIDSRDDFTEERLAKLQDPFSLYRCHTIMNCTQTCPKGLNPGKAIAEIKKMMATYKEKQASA
succinate dehydrogenase (mitochondrial Sdh, complex II), sequence (Q95123 56-158): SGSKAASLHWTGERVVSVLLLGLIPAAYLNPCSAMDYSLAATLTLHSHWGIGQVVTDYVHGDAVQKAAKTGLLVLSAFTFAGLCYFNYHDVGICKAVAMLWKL
succinate dehydrogenase (mitochondrial Sdh, complex II), sequence (P31039 44-665 partner): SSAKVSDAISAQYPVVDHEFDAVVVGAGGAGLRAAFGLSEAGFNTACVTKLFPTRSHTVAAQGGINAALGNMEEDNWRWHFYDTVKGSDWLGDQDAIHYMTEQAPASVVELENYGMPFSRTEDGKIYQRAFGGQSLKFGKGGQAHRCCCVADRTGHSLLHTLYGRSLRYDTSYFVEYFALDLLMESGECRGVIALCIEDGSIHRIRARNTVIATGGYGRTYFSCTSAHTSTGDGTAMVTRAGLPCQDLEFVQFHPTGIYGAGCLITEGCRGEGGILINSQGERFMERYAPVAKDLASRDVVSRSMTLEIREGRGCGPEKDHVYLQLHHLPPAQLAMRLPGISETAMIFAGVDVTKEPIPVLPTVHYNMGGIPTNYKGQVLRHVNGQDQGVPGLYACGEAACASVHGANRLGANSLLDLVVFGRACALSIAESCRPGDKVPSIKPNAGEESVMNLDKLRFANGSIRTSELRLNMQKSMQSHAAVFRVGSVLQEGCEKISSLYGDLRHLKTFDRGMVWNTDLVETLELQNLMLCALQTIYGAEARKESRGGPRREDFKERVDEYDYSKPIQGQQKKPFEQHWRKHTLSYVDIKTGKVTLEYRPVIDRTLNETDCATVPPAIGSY

For promysalin [(-)-1], half-maximal inhibition (IC50) required 2500 nM.
